The text below walks through data of patent US20250263408A1 (Uniquest Pty Ltd, priority 2022, published 2025).

One experiment has as its target T1, Ba/F3-Syk cells (Homo sapiens, UniProt P43405).
T1 construct: fused on or other part: Possible but unprinted fusion partner: TEL (ETV6), the usual partner for Ba/F3 lines transformed by Syk; Nothing on a partner is printed
The experiment in a line: Ba/F3 Proliferation Assay, Ba/F3-Syk cells (Resazurin). The following applies: 48-hour incubation. The class given is cell-based.

The subject of experiment [1] is Ba/F3-WT (wild type) cells. The experiment in a line: Ba/F3 Proliferation Assay, Ba/F3-WT (wild type) cells with mIL-3 (Resazurin). The class given is cell-based. The conditions noted are these: Ba/F3-WT cells +mIL-3, 48-hour incubation. Background: Resazurin is reduced to fluorescent resorufin, in cell work by metabolically active cells.

Usually EC50 stands for the concentration that produces a half-maximal response. Turning to `CCn1ccc(-c2cc(OC[C@@H]3CNCC4(CCC4)O3)c3nccnc3c2)c1` [Compound 8.16, 7-(1-ethyl-1H-pyrrol-3-yl)-5-{[(6S)-5-oxa-8-azaspiro[3.5]nonan-6-yl]methoxy}quinoxaline], the EC50 is 9.4 nM on Ba/F3-Syk cells and 822 nM in experiment [1] (Mus musculus, BaF3, 48 h).

For `Cc1ccnc2cc(-c3cnn(C(C)(C)C)c3)cc(OC[C@@H]3CNCC(C)(C)O3)c12` [Compound 14.9, 7-(1-tert-butyl-1H-pyrazol-4-yl)-5-{[(2S)-6,6-dimethylmorpholin-2-yl]methoxy}-4-methylquinoline], the EC50 on Ba/F3-Syk cells came out at 5.9 nM; in experiment [1] (Mus musculus, BaF3, 48 h), 1220 nM.

As to `Cc1cc(-c2cc3ncccc3c(OC[C@@H]3CNCCO3)n2)c(C)s1` [Compound 2.37, 7-(2,5-dimethylthiophen-3-yl)-5-{[(2S)-morpholin-2-yl]methoxy}-1,6-naphthyridine], the concentration for a half-maximal effect (EC50) amounted to 1230 nM at Ba/F3-Syk cells and 2830 nM in experiment [1] (Mus musculus, BaF3, 48 h).

Regarding `CCn1ccc(-c2cc(OC[C@@H]3CNCC(C)(C)O3)c3cccnc3c2)c1` [Compound 7.17, 5-{[(2S)-6,6-dimethylmorpholin-2-yl]methoxy}-7-(1-ethyl-1H-pyrrol-3-yl)quinoline], the EC50 was 15.8 nM on Ba/F3-Syk cells and 1960 nM in experiment [1] (Mus musculus, BaF3, 48 h).

For `Cn1cc(-c2cc3ncccc3c(O[C@H]([C@@H]3CNCCO3)C(F)(F)F)n2)cn1` [Compound 10.2, 7-(1-methyl-1H-pyrazol-4-yl)-5-[(1R)-2,2,2-trifluoro-1-[(2S)-morpholin-2-yl]ethoxy]-1,6-naphthyridine], the EC50 is 839 nM at Ba/F3-Syk cells and over 10000 nM in experiment [1] (Mus musculus, BaF3, 48 h).

For `CC(F)(F)Cn1cc(-c2cc3ncccc3c(OC[C@@H]3CNCCO3)n2)cn1` [Compound 6.40, 7-[1-(2,2-difluoropropyl)-1H-pyrazol-4-yl]-5-{[(2S)-morpholin-2-yl]methoxy}-1,6-naphthyridine], the EC50 on Ba/F3-Syk cells is 59.8 nM; in experiment [1] (Mus musculus, BaF3, 48 h), 1440 nM.

For the molecule `CC1(C)CNC[C@@H](COc2nc(-c3cnn(C4(C)CCC4)c3)cc3ncccc23)O1` [Compound 2.87, 5-{[(2S)-6,6-dimethylmorpholin-2-yl]methoxy}-7-[1-(1-methylcyclobutyl)-1H-pyrazol-4-yl]-1,6-naphthyridine], the EC50 was 11.2 nM at Ba/F3-Syk cells and 1100 nM in experiment [1] (Mus musculus, BaF3, 48 h).

As for `Cn1cc(-c2cc3ncccc3c(OC[C@@H]3CNCCCO3)n2)cn1` [Compound 2.50, 7-(1-methyl-1H-pyrazol-4-yl)-5-{[(2S)-1,4-oxazepan-2-yl]methoxy}-1,6-naphthyridine], the EC50 at Ba/F3-Syk cells was determined as 151 nM; in experiment [1] (Mus musculus, BaF3, 48 h), 6180 nM.

As to `c1cnc2cc(-c3ccn(C4CCC4)c3)nc(OC[C@@H]3CNCCO3)c2c1` [Compound 6.3, 7-(1-cyclobutyl-1H-pyrrol-3-yl)-5-{[(2S)-morpholin-2-yl]methoxy}-1,6-naphthyridine], the EC50 came out at 51.9 nM on Ba/F3-Syk cells and 2460 nM in experiment [1] (Mus musculus, BaF3, 48 h).

On to `CC1(C)CNC[C@H](COc2nc(-c3cnn(C(C)(C)C)c3)cc3ncccc23)O1` [Compound 2.82, 7-(1-tert-butyl-1H-pyrazol-4-yl)-5-{[(2R)-6,6-dimethylmorpholin-2-yl]methoxy}-1,6-naphthyridine], for which the EC50 turned out to be 127 nM at Ba/F3-Syk cells and 2270 nM in experiment [1] (Mus musculus, BaF3, 48 h).

Turning to `CC(C)n1cc(-c2cc3ncccc3c(OC[C@@H]3CNCCCO3)n2)cn1` [Compound 2.70, 5-{[(2S)-1,4-oxazepan-2-yl]methoxy}-7-[1-(propan-2-yl)-1H-pyrazol-4-yl]-1,6-naphthyridine], the EC50 stood at 19.1 nM on Ba/F3-Syk cells and 1540 nM in experiment [1] (Mus musculus, BaF3, 48 h).

Consider `Cn1cc(-c2cc3ncccc3c(OC[C@@H]3CN[C@H]4CCC[C@H]4O3)n2)cn1` (racemic) [Compound 2.53, 5-{[rel-(2R,4aR,7aS)-octahydrocyclopenta[b][1,4]oxazin-2-yl]methoxy}-7-(1-methyl-1H-pyrazol-4-yl)-1,6-naphthyridine], for which the EC50 on Ba/F3-Syk cells is 129 nM; in experiment [1] (Mus musculus, BaF3, 48 h) it was 2560 nM.

In the case of “5-{[(2R)-6,6-dimethylmorpholin-2-yllmethoxy}-7-[1-(3-methyloxolan-3-yl)-1H-pyrazol-4-yl]-1,6-naphthyridine [Compound 10.13]”, the EC50 on Ba/F3-Syk cells is 90.9 nM; in experiment [1], 3210 nM.

Take `FC1(F)CC(Cn2cc(-c3cc4ncccc4c(OC[C@@H]4CNCCO4)n3)cn2)C1` [Compound 6.37]: the EC50 on Ba/F3-Syk cells amounted to 60.3 nM; in experiment [1] (Mus musculus, BaF3, 48 h), 560 nM.

With `CC(C)n1cc(-c2cc(OC[C@@H]3CNCC4(CC4)O3)c3cccnc3c2)cn1` [Compound 3.21, 5-{[(SS)-4-oxa-7-azaspiro[2.5]octan-5-yl]methoxy}-7-[1-(propan-2-yl)-1H-pyrazol-4-yl]quinoline], the EC50 on Ba/F3-Syk cells is 13.1 nM; in experiment [1] (Mus musculus, BaF3, 48 h), 614 nM.

Regarding `Cn1ccc(-c2cc3ncccc3c(OC[C@@H]3CNC(C)(C)CCO3)n2)c1` [Compound 2.79, 5-{[(2S)-5,5-dimethyl-1,4-oxazepan-2-yl]methoxy}-7-(1-methyl-1H-pyrrol-3-yl)-1,6-naphthyridine], the EC50 at Ba/F3-Syk cells was 596 nM; in experiment [1] (Mus musculus, BaF3, 48 h) it was over 10000 nM.

Take `Cn1cc(-c2cc3ncccc3c(OCC3CNCCCO3)n2)cn1` (stereo not shown) [Compound 2.41, 7-(1-methyl-1H-pyrazol-4-yl)-5-[(1,4-oxazepan-2-yl)methoxy]-1,6-naphthyridine]: the EC50 is 127 nM on Ba/F3-Syk cells and 2320 nM in experiment [1] (Mus musculus, BaF3, 48 h).

Turning to `O=C1CCn2cc(-c3cc(OC[C@@H]4CNCCO4)c4cccnc4c3)cc21` [Compound 3, 6-(5-{[(2S)-morpholin-2-yl]methoxy}quinolin-7-yl)-2,3-dihydro-1H-pyrrolizin-1-one], the EC50 at Ba/F3-Syk cells was found to be 162 nM; in experiment [1] (Mus musculus, BaF3, 48 h), 1950 nM.

Consider `CC1(C)CNC[C@@H](COc2nc(-c3cnn4c3CCCC4)cc3ncccc23)O1` [Compound 10.3, 5-{[(2S)-6,6-dimethylmorpholin-2-yl]methoxy}-7-(4H,5H,6H,7H-pyrazolo[1,5-a]pyridin-3-yl}-1,6-naphthyridine], for which the EC50 on Ba/F3-Syk cells is 365 nM; in experiment [1] (Mus musculus, BaF3, 48 h), over 10000 nM.

Take `FC(F)c1cc(-c2cc(OC[C@@H]3CNCCO3)c3cccnc3c2)cs1` [Compound 14.3, 7-[5-(difluoromethyl)thiophen-3-yl]-5-{[(2S)-morpholin-2-yl]methoxy}quinoline]: the half-maximal effective concentration (EC50) worked out at 176 nM on Ba/F3-Syk cells and 1920 nM in experiment [1] (Mus musculus, BaF3, 48 h).

Turning to `C=Cc1cnc2cc(-c3cnn(C(C)(C)C)c3)nc(OC[C@@H]3CNCC(C)(C)O3)c2c1` (stereo in doubt) [Compound 14.8, 7-(1-tert-butyl-1H-pyrazol-4-yl)-5-[(6,6-dimethylmorpholin-2-yl)methoxy]-3-ethenyl-1,6-naphthyridine], the EC50 at Ba/F3-Syk cells is 1170 nM; in experiment [1] (Mus musculus, BaF3, 48 h), over 10000 nM.

Take `CC(C)n1cc(-c2cc3ncccc3c(OC[C@]3(C)CNCCO3)n2)cn1` [Compound 10.6, 5-{[(2S)-2-methylmorpholin-2-yl]methoxy}-7-[1-(propan-2-yl)-1H-pyrazol-4-yl]-1,6-naphthyridine]: the EC50 came out at 106 nM on Ba/F3-Syk cells and 754 nM in experiment [1] (Mus musculus, BaF3, 48 h).

As to `Cc1cc(-c2cc3ncccc3c(OC[C@@H]3CNCCO3)n2)sc1Cl` [Compound 2.35, 7-(5-chloro-4-methylthiophen-2-yl)-5-{[(2S)-morpholin-2-yl]methoxy}-1,6-naphthyridine], the EC50 at Ba/F3-Syk cells came to 667 nM; in experiment [1] (Mus musculus, BaF3, 48 h), 619 nM.

In the case of `CC[C@@]1(COc2nc(-c3cnn(C(C)C)c3)cc3ncccc23)CNCCO1` [Compound 10.16, 5-{[(2S)-2-ethylmorpholin-2-yl]methoxy}-7-[1-(propan-2-yl)-1H-pyrazol-4-yl]-1,6-naphthyridine], the EC50 came out at 259 nM at Ba/F3-Syk cells and 1210 nM in experiment [1] (Mus musculus, BaF3, 48 h).

Regarding `Cn1cc(-c2cc(OC[C@@H]3CNCC4(CCC4)O3)c3cccnc3c2)cn1` [Compound 11.7, 7-(1-methyl-1H-pyrazol-4-yl)-5-{[(6S)-5-oxa-8-azaspiro[3.5]nonan-6-yl]methoxy}quinoline], the EC50 on Ba/F3-Syk cells was found to be 46.3 nM; in experiment [1] (Mus musculus, BaF3, 48 h) it was 1070 nM.

As to `CC(C)n1cc(-c2cc3ncccc3c(O[C@H](C)[C@@H]3CNCC(C)(C)O3)n2)cn1` [Compound 2.84, 5-[(1R)-1-[(2S)-6,6-dimethylmorpholin-2-yl]ethoxy]-7-[1-(propan-2-yl)-1H-pyrazol-4-yl]-1,6-naphthyridine], the EC50 on Ba/F3-Syk cells is 22.3 nM; in experiment [1] (Mus musculus, BaF3, 48 h) it was 2210 nM.

With `CC(C)n1ccc(-c2cc3ncccc3c(OC[C@@H]3CNCCCO3)n2)c1` [Compound 6.24, 5-{[(2S)-1,4-oxazepan-2-yl]methoxy}-7-[1-(propan-2-yl)-1H-pyrrol-3-yl]-1,6-naphthyridine], the EC50 on Ba/F3-Syk cells turned out to be 16.4 nM; in experiment [1] (Mus musculus, BaF3, 48 h), 2820 nM.

As for `COCCn1ccc(-c2cc(OC[C@@H]3CNCC4(CC4)O3)c3nccnc3c2)c1` [Compound 8.1, 7-[1-(2-methoxyethyl)-1H-pyrrol-3-yl]-5-{[(5S)-4-oxa-7-azaspiro[2.5]octan-5-yl]methoxy}quinoxaline], the EC50 is 29.3 nM at Ba/F3-Syk cells and 1850 nM in experiment [1] (Mus musculus, BaF3, 48 h).

Take `CC1(C)CNC[C@@H](COc2nc(-c3cnn(C4(C)CCOC4)c3)cc3ncccc23)O1` (stereo partly shown) [Compound 2.89]: the EC50 at Ba/F3-Syk cells was determined as 21.7 nM; in experiment [1] (Mus musculus, BaF3, 48 h), 2730 nM.

Consider `Cn1cc(-c2cc(OC[C@@H]3CNCC4(CC4)O3)c3nccnc3c2)cn1` [Compound 12.1, 7-(1-methyl-1H-pyrazol-4-yl)-5-{[(5S)-4-oxa-7-azaspiro[2.5]octan-5-yl]methoxy}quinoxaline], for which the EC50 on Ba/F3-Syk cells was 214 nM; in experiment [1] (Mus musculus, BaF3, 48 h), over 10000 nM.

In the case of `c1cnc2cc(-c3cc4n(c3)CCC4)cc(OC[C@@H]3CNCCO3)c2c1` [Compound 4, 7-(2,3-dihydro-1H-pyrrolizin-6-yl)-5-{[(2S)-morpholin-2-yl]methoxy}quinoline], the EC50 at Ba/F3-Syk cells amounted to 87.7 nM; in experiment [1] (Mus musculus, BaF3, 48 h), 7210 nM.

For the molecule `c1cnc2cc(-c3ccn(C4COC4)c3)cc(OC[C@@H]3CNCC4(CC4)O3)c2c1` [Compound 7.16, 5-{[(5S)-4-oxa-7-azaspiro[2.5]octan-5-yl]methoxy}-7-[1-(oxetan-3-yl)-1H-pyrrol-3-yl]quinoline], the EC50 at Ba/F3-Syk cells was determined as 19.8 nM; in experiment [1] (Mus musculus, BaF3, 48 h), 1710 nM.
